Results on one compound are retold here after ChEMBL document CHEMBL4385634, “Melanogenic inhibitory effects of Triangularin in B16F0 melanoma cells, in vitro and molecular docking studies” (Bioorg Med Chem, 2019).

A short description of data set [1]: (§1) Cytotoxicity against mouse B16F0 cells incubated for 24 hrs by MTT assay. Conditions: B16F0 cells, read-out: MNCC. The format is cell-based, B16-F0. In general terms: Tetrazolium dyes change colour on reduction, which living cells bring about.
Another data set has as its system B16-F0. The data set is described as §1. Type of data set: cell-based. Conditions: b16-f0, 24 h.
In data set [2] the target is T1, Tyrosinase (Mus musculus, UniProt P11344).
T1 sequence (P11344 whole entry): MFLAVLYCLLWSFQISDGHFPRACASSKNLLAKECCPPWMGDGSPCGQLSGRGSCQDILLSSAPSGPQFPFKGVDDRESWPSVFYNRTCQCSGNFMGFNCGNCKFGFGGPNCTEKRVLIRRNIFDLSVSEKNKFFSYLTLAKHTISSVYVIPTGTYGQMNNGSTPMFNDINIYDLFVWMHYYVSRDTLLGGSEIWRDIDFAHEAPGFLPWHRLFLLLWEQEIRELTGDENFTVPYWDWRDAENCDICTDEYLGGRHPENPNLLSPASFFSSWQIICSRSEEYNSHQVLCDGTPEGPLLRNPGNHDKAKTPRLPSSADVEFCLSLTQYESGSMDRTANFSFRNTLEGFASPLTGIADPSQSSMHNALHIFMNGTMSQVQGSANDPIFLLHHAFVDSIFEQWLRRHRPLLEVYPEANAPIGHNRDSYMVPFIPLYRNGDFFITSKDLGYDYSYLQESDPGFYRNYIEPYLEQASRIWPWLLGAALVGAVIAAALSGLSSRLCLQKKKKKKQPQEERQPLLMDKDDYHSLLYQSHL
Briefly: Inhibition of tyrosinase in mouse B16F0 cells assessed as reduction in melanin production incubated for 24 hrs by spectrophotometric analysis. The format is cell-based.

Data set [3] deals with T2, Tyrosinase (Mus musculus) (UniProt P11344).
T2 sequence (whole entry): T1 sequence (P11344 whole entry)
Description: Inhibition of intracellular tyrosinase in mouse B16F0 cells at 100 uM using L-DOPA as substrate preincubated with compound followed by substrate addition and measured after 20 mins by UV-Visible spectrophotometric analysis relative to control. The format is cell-based.

Data set [4] concerns the target T2, Tyrosinase (Mus musculus). Briefly: Inhibition of intracellular tyrosinase in mouse B16F0 cells at 1 uM using L-DOPA as substrate preincubated with compound followed by substrate addition and measured after 20 mins by UV-Visible spectrophotometric analysis relative to control. Type of data set: cell-based.
For data set [5], the target named is T2, Tyrosinase (Mus musculus). Briefly: Inhibition of intracellular tyrosinase in mouse B16F0 cells at 10 uM using L-DOPA as substrate preincubated with compound followed by substrate addition and measured after 20 mins by UV-Visible spectrophotometric analysis relative to control. Type of data set: cell-based.
In data set [6] the target is T2, Tyrosinase (Mus musculus). Description: Potency index, ratio of compound effect to KA effect for inhibition of intracellular tyrosinase in mouse B16F0 cells using L-DOPA as substrate preincubated with compound followed by substrate addition and measured after 20 mins by UV-Visible spectrophotometric analysis. The format is cell-based.
In data set [7] the target is T2, Tyrosinase (Mus musculus). Description: Potency index, ratio of compound effect to KA effect for inhibition of tyrosinase in mouse B16F0 cells at 10 uM using L-DOPA as substrate. The format is cell-based.
The target in data set [8] is T1, Tyrosinase.
Description: Inhibition of tyrosinase in mouse B16F0 cells using L-DOPA as substrate by UV-Visible spectrophotometric analysis
Data set [9] concerns the target T2, Tyrosinase (Mus musculus). Briefly: Potency index, ratio of IC50 for KA to IC50 for test compound for inhibition of tyrosinase in mouse B16F0 cells using L-DOPA as substrate by UV-Visible spectrophotometric analysis. The format is cell-based.
The target of data set [10] is T2, Tyrosinase (Mus musculus). Briefly: Inhibition of intracellular tyrosinase in mouse B16F0 cells using L-DOPA as substrate preincubated with compound followed by substrate addition and measured after 20 mins by UV-Visible spectrophotometric analysis relative to control. The format is cell-based.
The target of data set [11] is T2, Tyrosinase (Mus musculus). Briefly: Inhibition of intracellular tyrosinase in mouse B16F0 cells at 50 uM using L-DOPA as substrate preincubated with compound followed by substrate addition and measured after 20 mins by UV-Visible spectrophotometric analysis relative to control. The format is cell-based.
In data set [12] the target is T2, Tyrosinase (Mus musculus). Description: Inhibition of intracellular tyrosinase in mouse B16F0 cells at 5 uM using L-DOPA as substrate preincubated with compound followed by substrate addition and measured after 20 mins by UV-Visible spectrophotometric analysis relative to control. Type of data set: cell-based.
The target in data set [13] is T3, Tyrosinase (Agaricus bisporus, UniProt O42713).
T3 sequence (O42713 whole entry): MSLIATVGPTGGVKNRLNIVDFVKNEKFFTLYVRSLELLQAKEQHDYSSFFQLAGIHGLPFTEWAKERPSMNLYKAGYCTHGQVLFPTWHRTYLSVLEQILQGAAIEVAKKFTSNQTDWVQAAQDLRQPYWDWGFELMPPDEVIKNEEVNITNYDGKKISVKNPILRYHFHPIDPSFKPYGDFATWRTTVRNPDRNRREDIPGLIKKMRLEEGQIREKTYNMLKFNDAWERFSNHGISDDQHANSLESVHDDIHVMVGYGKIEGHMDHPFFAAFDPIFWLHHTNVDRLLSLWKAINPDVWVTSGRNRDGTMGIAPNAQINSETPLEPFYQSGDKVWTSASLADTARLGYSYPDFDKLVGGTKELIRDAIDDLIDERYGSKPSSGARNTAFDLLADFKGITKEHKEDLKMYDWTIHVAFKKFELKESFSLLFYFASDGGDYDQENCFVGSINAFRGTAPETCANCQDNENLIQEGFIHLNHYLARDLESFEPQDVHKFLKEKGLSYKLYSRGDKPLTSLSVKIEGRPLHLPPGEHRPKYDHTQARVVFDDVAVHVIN
Briefly: Inhibition of mushroom tyrosinase diphenolase activity using L-dopa as substrate preincubated for 10 mins followed by substrate addition by UV-Visible spectrophotometric analysis.

Data set [14] addresses T4, Tyrosinase (Agaricus bisporus) (UniProt O42713).
T4 sequence (whole entry): T3 sequence (O42713 whole entry)
Description: Potency index, ratio of IC50 for KA to IC50 for test compound for inhibition of mushroom tyrosinase diphenolase activity using L-dopa as substrate preincubated for 10 mins followed by substrate addition by UV-Visible spectrophotometric analysis.

In data set [15] the target is T2, Tyrosinase (Mus musculus). Description: Inhibition of intracellular tyrosinase in mouse B16F0 cells at 25 uM using L-DOPA as substrate preincubated with compound followed by substrate addition and measured after 20 mins by UV-Visible spectrophotometric analysis relative to control. The format is cell-based.
In data set [16] the target is T2, Tyrosinase (Mus musculus). Description: Potency index, ratio of IC50 for KA to IC50 for test compound for inhibition of tyrosinase in mouse B16F0 cells assessed as reduction in melanin production incubated for 24 hrs by spectrophotometric analysis. The format is cell-based.

With `COc1cc(O)c(C(=O)/C=C/c2ccccc2)c(O)c1C`, the MNTC at 24 h in data set [1] was determined as 100 µM. The Activity result in the data set with B16-F0 is “Dose-dependent effect”. In addition, the IC50 turned out to be 25 µM on Tyrosinase [2], 30.1 µM at Tyrosinase [8] and 63.1 µM on Tyrosinase [13]. For the same compound, the inhibition is 20.1% in data set [3]; 3.9% in [4]; 7.8% in data set [5]; “Dose-dependent effect” in data set [10]; 16.2% in data set [11]; 6.1% in data set [12]. In data set [15], the inhibition came to 13%. Further, the values for the Ratio in [6], in data set [7] and in [9] were 5, 6 and 3, respectively. In addition, the Ratio IC50 in [14] came to 2; in data set [16] it was 8.

One may read the IC50 as the concentration that gives 50% inhibition. For orientation: inhibition means the relative decrease from the control value, in per cent.
